The values that follow come from US12295997B2, “Prostate neoantigens and their uses” (Janssen Biotech, Inc., priority 2020, dated 2025).

Assay [1] addresses HLA-A*02:01 (Homo sapiens, UniProt P04439, D140Y/D185E/D98H/E176V/E277Q/G131W/G231S/I119V/I121R/I166T/I218V/L300P/L318F/N151K/N90K/P208A/P217A/Q86G/Q94H/R138H/R169H/T345S). Nature of the assay: In vitro binding of neoantigens to class I MHC (UV peptide exchange, HLA class I ELISA). Conditions: 100% = same binding as positive control peptide. The protocol:
The 9 mer peptides identified by bioinformatics analysis were analyzed for their binding propensities to 6 common HLA class I alleles (HLA-A*01:01, A*02:01, A*03:01, A*24:02, B*07:02, B*08:01). The principle of the method is briefly described below and consists of two parts, one involving exchange of peptide with a positive control induced by Ultraviolet (UV) radiation, and the second is an enzyme immunoassay to detect stable HLA-peptide and empty HLA complexes.
HLA-bound peptides are critical for the stability of the HLA complex. A conditional HLA class I complex was stabilized by an UV-labile peptide utilizing a different peptide (Pos) for each HLA (Pos: HLA-A*01:01: […](SEQ ID NO: 409), HLA-A*02:01: […] (SEQ ID NO: 410), HLA-A*03:01: […] (SEQ ID NO: 411), HLA-A*24:02: […] (SEQ ID NO: 412), HLA-B*07:02: […] (SEQ ID NO: 413), HLA-B*08:01: […] (SEQ ID NO: 414), which could be cleaved by UV irradiation when bound to the HLA molecule. Upon cleavage, the resulting peptide fragments dissociated from the HLA class I complex since their length was insufficient to bind stably to HLA. Under the conditions in which peptide cleavage was performed (neutral pH, on melting ice), the peptide-free HLA complex remained stable.
The exchange efficiency between the peptide of interest and Pos was analyzed using an HLA class I ELISA. The combined technologies allowed the identification of ligands for an HLA molecule of interest which are potentially immunogenic.
Exchange control peptide Pos was a high affinity binder to the relevant HLA class I allele while exchange control peptide Neg was a non-binder. The UV control represented UV-irradiation of conditional HLA class I complex in the absence of a rescue peptide.
The HLA class I ELISA is an enzyme immunoassay based on the detection of beta2-microglobulin (B2M) of (peptide-stabilized) HLA class I complexes. To this end streptavidin was bound onto polystyrene microtiter wells. After washing and blocking, HLA complex present in exchange reaction mixtures or ELISA controls was captured by the streptavidin on the microtiter plate via its biotinylated heavy chain. Non-bound material was removed by washing. Subsequently, horseradish peroxidase (HRP)-conjugated antibody to human B2M was added. The HRP-conjugated antibody binds only to an intact HLA complex present in the microtiter well because unsuccessful peptide exchange results in disintegration of the original UV-sensitive HLA complex upon UV illumination. In the latter case B2M was removed during the washing step. After removal of non-bound HRP conjugate by washing, a substrate solution was added to the wells. A coloured product formed in proportion to the amount of intact HLA complex present in the samples. After the reaction was terminated by the addition of a stop solution, absorbance was measured in a microtiter plate reader. The absorbance was normalized to the absorbance of an exchange control peptide (represents 100%). Suboptimal HLA binding of peptides with a moderate to low affinity for HLA class I molecules can also be detected by this ELISA technique (Rodenko, B et al. (2006) Nature Protocols 1: 1120-32).
Peptides that had 10% or greater exchange efficiency in one of the 6 HLA alleles were considered for further immunogenicity testing and analysis.
Binding of select neoepitopes to HLA-A*01:01, HLA-A*02:01, HLA-A*03:01, HLAA*24:02, HLAAB*07:02 and HLA-B*08:01 was evaluated using the assay described in Example 1. […] As a criterion for further evaluation, peptides with an exchange rate of at least 10% with the corresponding Pos peptide for at least one of the 6 HLA alleles that we considered for further evaluation. The exchange rates with the allele specific Pos peptides, of the 24 neoantigens so identified are summarized below in Table 17. Higher percentages correspond to stronger binding to the HLA allele. […]
(An ELISA detects its analyte on a solid surface through an enzyme-linked reagent.)

Assay [2] concerns CD8+ T cells in PBMCs from human patients with metastatic castrate-resistant prostate cancer. As to the kind of experiment: Patient PBMC restimulation assay (in vitro immunogenicity, TNFα/IFNγ intracellular flow cytometry). Type of assay: cell-based. As to conditions: 9-mer peptide; for Maximum fold change over negative control: TNFα+IFNγ+CD8+ T cells, highest across PBMC donors evaluated; for Maximum frequency of TNFα^+IFNγ^+CD8^+ T cells (Percent): greatest frequency among all tested PBMC donors; for Immunogenic: patient PBMC restimulation. The protocol: PBMCs from human patients with metastatic castrate-resistant prostate cancer were thawed using media (RPMI 1640 supplemented with Glutamax, 10% HI FBS, and 1× Sodium Pyruvate). Cells were counted and plated in a 96 well round bottom microplate at a concentration of 250,000 viable cells per well. Lyophilized peptides were solubilized in 100% DMSO and diluted in media to 10 μg/mL. Neoantigen peptides were added in equal volume to PBMCs for a final concentration of 5 μg/mL. CEF Peptide Pool “Plus” (Cellular Technologies, Ltd.) was utilized as a positive control and DMSO at the same final concentration as the experimental peptides was utilized as a negative control. Human IL-15 (Peprotech) was added to all wells at final concentration of 10 ng/mL.
Plates were incubated at 37° C. (5% CO2) for a total of 13 days. Media was refreshed every 2 days with IL-15 (10 ng/mL final concentration) and IL-2 (R&D systems, 10 IU/mL final concentration). On day 12, PBMCs were re-stimulated with identical experimental peptides or controls, at same concentration as peptide stimulation on Day 1. After 1-hour incubation, protein Inhibitor Cocktail (eBioscience) was added to every well and plate was incubated overnight.
On day 13, cells were stained for intracellular flow cytometry analysis. The cells were washed with PBS and stained with Live/Dead Fixable Aqua Dead Cell stain (Thermo-Fisher). Following the live/dead stain, cells were blocked using Biotin-Free Fc Receptor Blocker (Accurate Chemical & Scientific Corp). Extracellular cellular flow panel ([…] per well in 50 μL) consisted of CD3 PerCP-Cy5.5 (Biolegend), CD4 BV421 (Biolegend), and CD8 APC-Cy7 (Biolegend). After extracellular staining, cells were fixed using Foxp3/fTranscription Factor Staining Buffer Set (eBioscience) and stained for intracellular proteins (1:50 dilution) using TNFα FITC (R&D Systems) and IFNγ BV785 (Biolegend). Cells were washed and resuspended in stain buffer and analyzed using a BD Celesta flow cytometer.
Flow cytometry cell staining analysis was completed using FlowJo v10. Cells were gated on live, singlet, CD3+ cells. The CD8+ T cells were analyzed for TNFα/IFNγ expression and the frequency of double positive TNFα/IFNγ CD8+ T cells was recorded. Responses were assessed to be positive when the frequency of double positive TNFα/IFNγ CD8+ T cells due to stimulation with an experimental peptide was increased greater than or equal to 2-fold over the DMSO only negative control for that patient. Peptides were analyzed in 1 to 7 patient samples.
The 9 mer fragments shown in Table 13 were assessed for their ability to activate T cells using the Patient PBMC restimulation assay described in Example 1 using TNFα and IFNγ production by CD8^+ T cells as a readout. Self-antigens shown in Table 15 were also used in the assays. […] PBMCs from ten patients were evaluated.
(Flow cytometry measures light scatter and fluorescence of single cells or particles in a stream.)

For “P46 (DDRNTFDIVWWCPMSRLRLALTVPPSTTTTCVTVPAWAA; listed as Homo sapiens) [Peptide P46]”, the “Exchange rate with allele specific Pos peptide, HLA-A*02:01” value (“Exchange rate” below) in assay [1] was 14.4%. In assay [2], the “Maximum fold change over negative control” value (“Maximum fold change” below) is listed as 2.33, the “Maximum frequency of TNFα^+IFNγ^+CD8^+ T cells (Percent)” value (shortened to “Maximum frequency … (Percent)”) is reported as 0.140% and the Immunogenic result was “Yes”.
Turning to “P56 (PKSEVRAKCKFSILNAK; listed as Homo sapiens) [Peptide P56]”, the “Exchange rate” value in assay [1] is 8.4%. Moreover, in assay [2], the “Maximum fold change” value is reported as 11.57, the “Maximum frequency … (Percent)” value is recorded as 1.620% and the Immunogenic result is listed as “Yes”.
On to “P58 (MMAEIISVHVPKILSGK; listed as Homo sapiens) [Peptide P58]”, for which, in assay [1], the “Exchange rate” value was found to be 11.8%. Also, in assay [2], the “Maximum frequency … (Percent)” value is reported as 5.370% and the Immunogenic result is recorded as “Yes”.
Turning to “P60 (CYLRRQKRLKCEKQPGA; listed as Homo sapiens) [Peptide P60]”, the “Exchange rate” value in assay [1] is 7.9%. In assay [2], the “Maximum fold change” value stood at 2.08, the “Maximum frequency … (Percent)” value is reported as 0.340% and the Immunogenic result is given as “Yes”.
For “P61 (MFENGCYLGRQKRFKCE; listed as Homo sapiens) [Peptide P61]”, the “Exchange rate” value in assay [1] came to 5.8%. Also, in assay [2], the “Maximum frequency … (Percent)” value turned out to be 0.084% and the Immunogenic result was “Yes”.
For the molecule “P73 (DSSGNLLERNSFEVRV; listed as Homo sapiens) [Peptide P73]”, in assay [1], the “Exchange rate” value came out at 89.2%. Further, in assay [2], the “Maximum fold change” value is listed as 2.97, the “Maximum frequency … (Percent)” value is recorded as 0.110% and the Immunogenic result is “Yes”.
For “P97 (GYLRMQGLMAQRLLLR; listed as Homo sapiens) [Peptide P97]”, in that order: 4.6%, 4.55, 0.160% and “Yes”.
The like results for “P98: neoantigen 9 mer fragment used for PBMC stimulation (FIG. 5D) (IVWWCPMSR; listed as Homo sapiens) [Neoantigen P98]” were, in that order, 7.9%, 14.93, 1.000% and “Yes”.
Consider “SLYHREKQLIAMDSAI (listed as Homo sapiens) [Neoantigen P22]”, for which the “Exchange rate” value in assay [1] turned out to be 46.9%. In addition, in assay [2], the “Maximum frequency … (Percent)” value was determined as 0.120% and the Immunogenic entry is “Yes”.
Consider “YEAGMTLGEKFRVGNCKHLKMTRP (listed as Homo sapiens) [Neoantigen P82]”, for which, in assay [1], the “Exchange rate” value was 6.3%. Further, in assay [2], the “Maximum fold change” value came to 3.46, the “Maximum frequency … (Percent)” value stood at 0.970% and the Immunogenic entry was “Yes”.
“YEAGMTLGGKILFFLFLLLPLSPFSLIF (listed as Homo sapiens) [Neoantigen P87]”: the “Exchange rate” value in assay [1] is recorded as 64%. For the same molecule, in assay [2], the “Maximum fold change” value is 3.24, the “Maximum frequency … (Percent)” value came out at 0.120% and the Immunogenic entry is “Yes”.

B1: P19 (peptide, listed as Homo sapiens)
chain: WTPIPVLTRWPLPHPPPWRRATSCRMARSSPSATSGSSVRRRCSSLPSWVWNLAASTRPRSTPS
With B1, in assay [1], the “Exchange rate” value was 8.2%. Also, in assay [2], the “Maximum fold change” value was 5.00, the “Maximum frequency … (Percent)” value stood at 0.480% and the Immunogenic entry is “Yes”.
